Like-named read-outs stand apart in the source and are kept apart here.
Biological target: TICA0049 Fab
Assay: HTRF competition binding selectivity assay, TICA0049 His-Fab
Set-up: species or system human
Method: Total Binding control wells were set up which contained all of the assay components above except that 5 ul assay buffer was added in place of the test selectivity compound addition. Negative Binding control wells were set up which contained all of the assay components included in the Total Binding control wells except that 5ul assay buffer was added in place of the His-Fab addition. Test compound serial titrations were either ½ or ⅓ depending on the particular experiment and top final assay compound concentrations were optimized on a compound specific basis. The concentration of biotinylated ticagrelor and His-Fab was optimized on a Fab specific basis in separate experiments. For the four Fabs investigated at the end of the lead isolation phase (TICA0010, TICA0049, TICA0053 and TICA0072) the final assay reagent concentrations used are set out in Table 1 below:
For the two Fabs investigated at the end of the lead optimization phase (TICA0162 and TICA0212) the final assay reagent concentrations used were 5nM biotinylated ticagrelor and 1 nM His Fab in both cases. […] In order to enable subsequent normalization of data to correct for any such vehicle related effects parallel titrations of DMSO alone were included in most experiments in which the final assay DMSO concentrations mirrored those of the test compound serial dilutions. At the end of the set up procedure that assay was incubated for 3hrs at RT before being read on an Envision plate reader using a standard read protocol.
The negative ratio value used in the calculation of % Delta F was derived from the Negative Binding control wells. % Delta F values were then used to calculate % Specific Binding values according to the equation below: Specific Binding (%)={(Sample Delta F−Negative Binding Delta F)/(Total Binding Delta F−Negative Binding Delta F)}×100
For standard calculations of % Specific Binding Total Binding Delta F was taken from Total Binding control wells which contained all of the aforementioned components of the assay but without inclusion of any competing test compound.
In those experiments where DMSO normalization was applied DMSO normalised % Specific Binding was calculated essentially according to the equation above except that in this case Total Binding Delta F was taken from wells containing all of the components in the Total Binding control wells as well as DMSO at a concentration equivalent to that in the relevant sample well.
In a second series of experiments further selectivity data was generated for TICA0049 and TICA0072 Fabs in which a subset of four of the twelve compounds listed in FIG. 4 were retested along with ticagrelor, TAM and TIM and several adenosine related compounds. Here, in a refinement to the earlier investigations in Table 2, experiments were designed in order to enable normalisation of percent specific binding values to correct for any non-specific vehicle related effects due to DMSO. Example plotted data from this second series of experiments is shown in FIG. 5A-F along with tabulated IC50 values in Table 3.

IC50 (first series (Table 2), not DMSO normalised, read-out: IC50 (uM) for inhibition of biotinylated ticagrelor binding to TICA0049 his-Fab): 0.257 µM
IC50 (second series (Table 3), DMSO normalised, read-out: IC50 in competition binding selectivity studies, TICA0049): 0.368 µM
SMILES: CCCSc1nc(N[C@@H]2C[C@H]2c2ccc(F)c(F)c2)c2nnn([C@@H]3C[C@H](OCCO)[C@@H](O)[C@H]3O)c2n1 [Ticagrelor, (1S,2S,3R,5S)-3-[7-{[(1R,2S)-2-(3,4-difluorophenyl)cyclopropyl]amino}-5-(propylthio)-3H-[1,2,3]triazolo[4,5-d]pyrimidin-3-yl]-5-(2-hydroxyethoxy)cyclopentane-1,2-diol]
